Reference: BindingDB's records for doi:10.1021/jm8013458 (University of Copenhagen, 2009)

Tests used:
[1] = target: Excitatory amino acid transporter 2 (Homo sapiens, UniProt P43004); assay: Displacement of [3H]D-Asp from human EAAT2 receptor expressed in HEK293 cells
[2] = target: T1, Excitatory amino acid transporter 3 (Homo sapiens, UniProt P43005); assay: Displacement of [3H]D-Asp from human EAAT3 receptor expressed in HEK293 cells
T1 sequence (P43005 whole entry): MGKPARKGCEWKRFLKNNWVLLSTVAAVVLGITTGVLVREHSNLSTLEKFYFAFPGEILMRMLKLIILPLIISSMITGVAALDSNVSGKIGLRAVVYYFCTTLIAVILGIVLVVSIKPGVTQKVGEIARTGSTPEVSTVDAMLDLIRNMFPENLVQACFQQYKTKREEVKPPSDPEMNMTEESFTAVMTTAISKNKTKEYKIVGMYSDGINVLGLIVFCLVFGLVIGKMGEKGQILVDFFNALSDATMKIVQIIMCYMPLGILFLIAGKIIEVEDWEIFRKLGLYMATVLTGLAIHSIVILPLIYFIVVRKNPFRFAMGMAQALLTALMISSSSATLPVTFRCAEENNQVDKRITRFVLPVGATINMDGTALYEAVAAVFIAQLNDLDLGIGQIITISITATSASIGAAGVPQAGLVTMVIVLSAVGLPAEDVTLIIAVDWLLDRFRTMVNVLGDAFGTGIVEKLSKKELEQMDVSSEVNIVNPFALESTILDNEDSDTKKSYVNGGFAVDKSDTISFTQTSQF

[3] = target: Excitatory amino acid transporter 1 (Homo sapiens, UniProt P43003); assay: Displacement of [3H]D-Asp from human EAAT1 receptor expressed in HEK293 cells
Excitatory amino acid transporter 1, sequence (P43003 whole entry): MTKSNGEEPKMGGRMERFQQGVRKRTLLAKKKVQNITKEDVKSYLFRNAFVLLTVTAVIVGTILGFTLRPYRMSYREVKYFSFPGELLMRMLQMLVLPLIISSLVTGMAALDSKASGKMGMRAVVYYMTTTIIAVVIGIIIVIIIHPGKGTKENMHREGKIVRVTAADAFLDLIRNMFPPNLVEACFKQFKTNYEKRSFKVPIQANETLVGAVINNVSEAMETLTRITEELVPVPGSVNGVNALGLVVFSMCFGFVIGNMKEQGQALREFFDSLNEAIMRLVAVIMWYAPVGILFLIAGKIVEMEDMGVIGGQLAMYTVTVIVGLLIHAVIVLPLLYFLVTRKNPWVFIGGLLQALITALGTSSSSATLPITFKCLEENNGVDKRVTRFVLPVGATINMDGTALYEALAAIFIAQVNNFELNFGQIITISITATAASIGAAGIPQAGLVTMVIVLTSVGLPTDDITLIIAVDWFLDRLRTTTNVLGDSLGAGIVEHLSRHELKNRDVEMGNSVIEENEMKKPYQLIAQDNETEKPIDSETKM

Excitatory amino acid transporter 2, sequence (P43004 whole entry): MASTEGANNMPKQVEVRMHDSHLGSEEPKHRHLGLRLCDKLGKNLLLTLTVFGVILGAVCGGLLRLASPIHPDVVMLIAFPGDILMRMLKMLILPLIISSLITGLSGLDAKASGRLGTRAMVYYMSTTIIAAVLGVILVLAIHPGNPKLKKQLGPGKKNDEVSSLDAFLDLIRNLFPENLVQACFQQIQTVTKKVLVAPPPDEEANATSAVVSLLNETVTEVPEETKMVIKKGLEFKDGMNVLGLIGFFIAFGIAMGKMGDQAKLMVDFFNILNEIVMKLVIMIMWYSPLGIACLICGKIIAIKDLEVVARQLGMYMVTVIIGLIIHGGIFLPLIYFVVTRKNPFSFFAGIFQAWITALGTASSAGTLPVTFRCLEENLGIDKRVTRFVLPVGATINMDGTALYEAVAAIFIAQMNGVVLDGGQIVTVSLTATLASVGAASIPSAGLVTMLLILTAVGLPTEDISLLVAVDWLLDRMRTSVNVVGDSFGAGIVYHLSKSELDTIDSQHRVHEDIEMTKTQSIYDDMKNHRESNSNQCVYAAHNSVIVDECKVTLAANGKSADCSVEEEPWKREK

Compound | IC50 [1] | IC50 [2] | IC50 [3]
N#CC1C(=N)OC2=C(C(=O)CC(c3ccccc3)C2)C1c1ccc2c(c1)OCO2 (centres undefined) | > 300 µM | > 300 µM | –
N#CC1C(=N)OC2=C(C(=O)CC(c3ccco3)C2)C1c1ccccc1 (centres undefined) [2-amino-7-(furan-2-yl)-5-oxo-4-phenyl-5,6,7,8-tetrahydro-4H-chromene-3-carbonitrile] | > 300 µM | > 300 µM | –
N#CC1CC2=C(CC(c3ccccc3)CC2=O)OC1=N (centres undefined) [2-Amino-5-oxo-7-phenyl-5,6,7,8-tetrahydro-4H-chromene-3-carbonitrile] | > 300 µM | > 300 µM | > 300 µM
N#CC1C(=N)OC2=C(C(=O)CC(c3ccccc3)C2)C1c1ccc([N+](=O)[O-])cc1 (centres undefined) [2-amino-4-(4-nitrophenyl)-5-oxo-7-phenyl-5,6,7,8-tetrahydro-4H-chromene-3-carbonitrile] | > 100 µM | > 100 µM | 3.6 µM
N#CC1C(=N)OC2=C(C(=O)CC(c3ccccc3)C2)C1Cc1ccccc1 (centres undefined) [2-amino-4-benzyl-5-oxo-7-phenyl-5,6,7,8-tetrahydro-4H-chromene-3-carbonitrile] | > 100 µM | > 100 µM | 30 µM
COc1ccc(C2C3=C(CC(c4cccc5ccccc45)CC3=O)OC(=N)C2C#N)cc1 (centres undefined) [2-Amino-4-(4-methoxyphenyl)-7-(naphthalene-1-yl)-5-oxo-5,6,7,8-tetrahydro-4H-chromene-3-carbonitrile] | > 300 µM | > 300 µM | 0.66 µM
N#CC1C(=N)OC2=C(C(=O)CC(c3ccccc3)C2)C1c1ccc(-c2ccccc2)cc1 (centres undefined) [2-amino-4-(biphenyl-4-yl)-5-oxo-7-phenyl-5,6,7,8-tetrahydro-4H-chromene-3-carbonitrile] | > 100 µM | > 100 µM | –
COc1ccc(C2C3=C(CC(c4ccco4)CC3=O)OC(=N)C2C#N)cc1OC(=O)N1CCOCC1 (centres undefined) [5-(2-amino-3-cyano-7-(furan-2-yl)-5-oxo-5,6,7,8-tetrahydro-4H-chromen-4-yl)-2-methoxyphenyl morpholine-4-carboxylate] | > 300 µM | > 300 µM | 100 µM
N#CC1C(=N)OC2=C(C(=O)CC(c3ccccc3)C2)C1c1cccnc1 (centres undefined) [2-amino-5-oxo-7-phenyl-4-(pyridin-3-yl)-5,6,7,8-tetrahydro-4H-chromene-3-carbonitrile] | > 300 µM | > 300 µM | 30 µM
CSc1ccc(C2C3=C(CC(c4ccccc4)CC3=O)OC(=N)C2C#N)cc1 (centres undefined) [2-amino-4-(4-(methylthio)phenyl)-5-oxo-7-phenyl-5,6,7,8-tetrahydro-4H-chromene-3-carbonitrile] | > 100 µM | > 100 µM | –
COc1cccc(C2C3=C(CC(c4ccccc4)CC3=O)OC(=N)C2C#N)c1OC (centres undefined) [2-amino-4-(2,3-dimethoxyphenyl)-5-oxo-7-phenyl-5,6,7,8-tetrahydro-4H-chromene-3-carbonitrile] | – | – | 50.1 µM
COc1ccc(C2C3=C(CC(c4ccc(OC)c(OC)c4)CC3=O)OC(=N)C2C#N)cc1 (centres undefined) [2-Amino-4-(4-methoxyphenyl)-7-(3,4-dimethoxyphenyl)-5-oxo-5,6,7,8-tetrahydro-4H-chromene-3-carbonitrile] | > 300 µM | > 300 µM | –
CC1C2=C(CC(c3ccccc3)CC2=O)OC(=N)C1C#N (centres undefined) [2-amino-4-methyl-5-oxo-7-phenyl-5,6,7,8-tetrahydro-4H-chromene-3-carbonitrile] | > 316 µM | > 300 µM | –
COc1ccc(C2C3=C(CC(c4ccccc4Cl)CC3=O)OC(=N)C2C#N)cc1 (centres undefined) [2-amino-7-(2-chlorophenyl)-4-(4-methoxyphenyl)-5-oxo-5,6,7,8-tetrahydro-4H-chromene-3-carbonitrile] | > 300 µM | > 300 µM | –
N#CC1C(=N)OC2=C(C(=O)CCC2)C1c1ccccc1F (centres undefined) [2-amino-4-(2-fluorophenyl)-5-oxo-5,6,7,8-tetrahydro-4H-chromene-3-carbonitrile] | > 300 µM | > 300 µM | > 300 µM
N#CC1C(=N)OC2=C(C(=O)CC(c3ccccc3)C2)C1c1ccc2ccccc2c1 (centres undefined) [2-amino-4-(naphthalen-2-yl)-5-oxo-7-phenyl-5,6,7,8-tetrahydro-4H-chromene-3-carbonitrile] | > 100 µM | > 100 µM | 3.6 µM
CC1CC(=O)C2=C(C1)OC(=N)C(C#N)C2c1ccc2c(c1)OCO2 (centres undefined) [2-amino-4-(benzo[d][1,3]dioxol-5-yl)-7-methyl-5-oxo-5,6,7,8-tetrahydro-4H-chromene-3-carbonitrile] | > 300 µM | > 300 µM | > 300 µM
N#CC1C(=N)OC2=C(C(=O)CC(c3cccs3)C2)C1c1ccc([N+](=O)[O-])cc1 (centres undefined) [2-amino-4-(4-nitrophenyl)-5-oxo-7-(thiophen-2-yl)-5,6,7,8-tetrahydro-4H-chromene-3-carbonitrile] | > 300 µM | > 300 µM | –
